As a reminder, the Ki is a dissociation constant, usually derived from enzyme kinetics or from competition with a known ligand. Higher therefore signals weaker binding.

Values joined by “and” are separate entries in the source; they are usually repeats but may differ in a detail not shown here. Equal values may be shown once.

The target of this experiment is Mitogen-activated protein kinase kinase kinase kinase 1 (Homo sapiens, UniProt Q92918). Briefly: Binding Assay: Lanth: For the binding assay, 4 ul 2×HPK1 and Eu-anti-GST antibody were added to each well of the assay plate using a Multidrop reagent dispenser. The solutions were incubated in a 23 C incubator for 1 h. To each well of the assay plate was added 4 ul 2× Tracer-222 using a Multidrop reagent dispenser. The solutions were again incubated in a 23 C incubator for 1 h. The results of the assay were read using an Envision plate reader with the following parameters: TR_FRET, 340ex/615 and 665em; 100 usec Delay; and 200 usec integration.
Chain of Mitogen-activated protein kinase kinase kinase kinase 1 (Q92918 whole entry): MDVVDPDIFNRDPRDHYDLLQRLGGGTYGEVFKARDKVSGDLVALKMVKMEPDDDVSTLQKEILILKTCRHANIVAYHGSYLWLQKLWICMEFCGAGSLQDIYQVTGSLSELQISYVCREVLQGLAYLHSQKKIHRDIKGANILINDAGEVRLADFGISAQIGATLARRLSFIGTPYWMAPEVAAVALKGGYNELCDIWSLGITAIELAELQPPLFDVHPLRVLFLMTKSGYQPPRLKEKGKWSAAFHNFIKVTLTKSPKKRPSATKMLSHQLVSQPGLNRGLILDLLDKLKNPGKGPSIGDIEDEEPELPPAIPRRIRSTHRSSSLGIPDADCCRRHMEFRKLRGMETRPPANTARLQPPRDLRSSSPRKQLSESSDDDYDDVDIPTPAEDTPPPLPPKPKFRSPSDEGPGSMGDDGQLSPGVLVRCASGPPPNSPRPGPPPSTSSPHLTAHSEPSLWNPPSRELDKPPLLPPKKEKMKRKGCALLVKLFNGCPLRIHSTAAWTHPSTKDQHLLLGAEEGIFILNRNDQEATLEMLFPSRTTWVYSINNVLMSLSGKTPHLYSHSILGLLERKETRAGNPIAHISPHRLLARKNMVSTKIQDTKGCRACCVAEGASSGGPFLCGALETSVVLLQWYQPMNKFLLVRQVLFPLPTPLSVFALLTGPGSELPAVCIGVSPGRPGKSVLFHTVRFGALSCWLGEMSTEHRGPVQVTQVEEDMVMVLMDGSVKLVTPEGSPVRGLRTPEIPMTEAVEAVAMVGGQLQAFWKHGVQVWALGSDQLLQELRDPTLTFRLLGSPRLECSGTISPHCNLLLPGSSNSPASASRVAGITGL
In the case of `Cc1cc(-n2cccn2)ncc1-c1cc2cc(NC(=O)[C@H]3C[C@@H]3c3cnn(C)c3)ncc2c(N)n1`, the Ki came to 3.3 nM.

Take `Cc1ccncc1-c1cc2cc(NC(=O)C3C[C@@H]3C(F)(F)F)ncc2c(N)n1` (some centres not stated): the affinity, expressed as Ki, was 1.42 nM.

For `Cc1ccncc1-c1cc2cc(NC(=O)[C@H]3[C@@H]4CC(N5CCOCC5)C[C@@H]43)ncc2c(N)n1` (some centres not stated), the affinity corresponds to a Ki of 0.972 nM.

As for `CCc1ccncc1-c1cc2cc(NC(=O)[C@H]3C[C@@H]3C#N)ncc2c(N)n1`, the Ki is 1.31 nM and 0.583 nM.

For the compound `COC1CN([C@H]2C[C@@H]3[C@H](C2)[C@H]3C(=O)Nc2cc3cc(-c4cnccc4C)nc(N)c3cn2)C1`, the inhibition constant (Ki) was 2.14 nM. This lies in the single-digit nanomolar range.

Take `Cc1ccncc1-c1cc2cc(NC(=O)[C@@H]3[C@H](C)[C@H]3CC#N)ncc2c(N)n1`: the Ki worked out at 0.188 nM.

For the compound `CCc1ccncc1-c1cc2cc(NC(=O)[C@@H]3C[C@@H]3C#N)ncc2c(N)n1`, the Ki was 10.6 nM and 3.21 nM.

The compound `Cc1cc(N2CCC2=O)ncc1-c1cc2cc(NC(=O)[C@H]3C[C@@H]3c3cnn(C)c3)ncc2c(N)n1` came in with a Ki of 1.73 nM.

The compound `Cc1ccncc1-c1cc2cc(NC(=O)[C@H]3[C@H](C)[C@@H]3CC#N)ncc2c(N)n1` came in with an inhibition constant Ki of 6.01 nM.

On to `Cc1ccncc1-c1cc2cc(NC(=O)[C@@H]3[C@@H](C)[C@H]3CC#N)ncc2c(N)n1`, for which the Ki was 0.837 nM.

For the compound `Cc1cc(-c2ccn(C)n2)ncc1-c1cc2cc(NC(=O)[C@H]3C[C@@H]3c3cnn(C)c3)ncc2c(N)n1`, the Ki is 2.26 nM.

Turning to `Cc1ccncc1-c1cc2cc(NC(=O)C(C)C)ncc2c(N)n1`, the Ki was found to be 29.8 nM.

Take `COC(=O)c1cc(C)c(-c2cc3cc(NC(=O)[C@H]4C[C@@H]4c4cnn(C)c4)ncc3c(N)n2)cn1`: the affinity, expressed as Ki, was 0.509 nM. This Ki lies about 59-fold lower than the previous one.

On to `Cc1ccncc1-c1cc2cc(NC(=O)[C@H]3[C@@H](C)[C@@H]3CC#N)ncc2c(N)n1`, for which the Ki was 0.763 nM.

`Cc1ccncc1-c1cc2cc(NC(=O)[C@@H]3C[C@H]3CN)ncc2c(N)n1` (racemic) displayed a Ki of 2.4 nM.

As for `Cn1cc([C@H]2C[C@@H]2C(=O)Nc2cc3cc(-c4cnc5c(=O)n(C)ncc5c4)nc(N)c3cn2)cn1` (racemic), the Ki was 3.14 nM.

In the case of `Cc1cc2c(cc1-c1cc3cc(NC(=O)[C@@H]4C[C@@H]4F)ncc3c(N)n1)CC(=O)N2` (racemic), the Ki worked out at 2.81 nM.

`Cc1c(N)cncc1-c1cc2cc(NC(=O)[C@H]3C[C@@H]3C(F)(F)F)ncc2c(N)n1` (racemic): affinity was put at a Ki of 1.1 nM.

Take `Cc1ccncc1-c1cc2cc(NC(=O)[C@H]3C[C@@H]3CC#N)ncc2c(N)n1` (racemic): the Ki stood at 0.57 nM.

Compound `Cc1ccncc1-c1cc2cc(NC(=O)[C@@H]3C[C@H]3c3cnn(C)c3)ncc2c(N)n1` (racemic) displayed a Ki of 0.23 nM.

In turn, `Cc1ccncc1-c1cc2cc(Nc3cnn([C@H]4CN(C5COC5)CC[C@@H]4O)c3)ncc2c(N)n1` (racemic) showed a Ki of 0.567 nM.

For the compound `Cc1cc2[nH]cnc2cc1-c1cc2cc(NC(=O)[C@@H]3C[C@@H]3F)ncc2c(N)n1` (racemic), the affinity, expressed as Ki, was 7.9 nM.

For the compound `CCc1cc(=O)n(C)cc1-c1cc2cc(NC(=O)[C@@H]3C[C@@H]3F)ncc2c(N)n1` (racemic), the Ki came to 440 nM.

As for `Cc1ccncc1-c1cc2cc(NC(=O)[C@@H]3C[C@@H]3C)ncc2c(N)n1` (racemic), affinity was put at a Ki of 2.3 nM.

`CCc1cc(N)ncc1-c1cc2cc(NC(=O)[C@@H]3C[C@@H]3F)ncc2c(N)n1` (racemic): the affinity, expressed as Ki, was 5.76 nM.

The compound `N#CC[C@H]1C[C@@H]1C(=O)Nc1cc2cc(-c3cnccc3CCO)nc(N)c2cn1` (racemic) gave a Ki of 0.501 nM.

For `CCc1ccncc1-c1cc2cc(NC(=O)[C@@H]3C[C@H]3C(=O)C3CC(O)C3)ncc2c(N)n1` (mixture of isomers), the affinity corresponds to a Ki of 163 nM.

On to `Cc1cc(C)c(-c2cc3cc(NC(=O)[C@@H]4C[C@H]4C#N)ncc3c(N)n2)cc1C(N)=O` (racemic), for which the Ki came to 89 nM.

`Cc1ccncc1-c1nc(N)c2cnc(NC(=O)[C@@H]3C[C@H]3c3cn[nH]c3)cc2c1F` (racemic): the Ki was 0.19 nM.

`CCOc1ccncc1-c1cc2cc(NC(=O)[C@H]3C[C@@H]3C#N)ncc2c(N)n1` (racemic) came in with a Ki of 0.98 nM.

In the case of `CC(=O)OC[C@]1(C)C[C@@H]1C(=O)Nc1cc2cc(-c3cnccc3C)nc(N)c2cn1` (racemic), the inhibition constant Ki worked out at 14.6 nM.

With `Nc1nc(-c2cncc3c2OCCN3)cc2cc(NC(=O)[C@@H]3C[C@@H]3F)ncc12` (racemic), the Ki was found to be 0.135 nM.

Compound `Cc1c[nH]c(=O)cc1-c1cc2cc(NC(=O)[C@@H]3C[C@@H]3F)ncc2c(N)n1` (racemic) had a Ki of 6.5 nM.

`Cc1c(-c2cc3cc(NC(=O)[C@H]4C[C@@H]4C#N)ncc3c(N)n2)cncc1C(F)F` (racemic) registered an inhibition constant Ki of 39 nM.

In turn, `CC(=O)OC[C@@]1(C)C[C@@H]1C(=O)Nc1cc2cc(-c3cnccc3C)nc(N)c2cn1` (racemic) showed a Ki of 17.1 nM.

`C=Cc1c(-c2cnccc2C)nc(N)c2cnc(NC(=O)[C@H]3C[C@@H]3CC#N)cc12` (racemic): affinity was put at a Ki of 0.225 nM.

With `Nc1nc(-c2cncc3c2CCN3)cc2cc(NC(=O)[C@@H]3C[C@@H]3F)ncc12` (racemic), the affinity corresponds to a Ki of 0.154 nM.

`CCc1ccncc1-c1cc2cc(NC(=O)[C@@H]3C[C@@H]3C(N)=O)ncc2c(N)n1` (racemic): the Ki worked out at 25.8 nM.

The compound `Cc1[nH]ncc1-c1cc2cc(NC(=O)[C@@H]3C[C@H]3C(F)(F)F)ncc2c(N)n1` (racemic) had a Ki of 16 nM. This Ki lies about 1.6-fold lower than the previous one.

`Cc1ccncc1-c1cc2cc(NCC3CC3(F)F)ncc2c(N)n1` (racemic) showed a Ki of 61.3 nM. Compared with the last compound, the Ki is about 3.8-fold higher.

With `Cn1ccc2cncc(-c3cc4cc(NC(=O)[C@@H]5C[C@@H]5F)ncc4c(N)n3)c21` (racemic), the Ki was 101 nM. Compared with the last compound, the Ki is about 1.6-fold higher.

Take `Cc1ccncc1-c1cc2cc(NC(=O)[C@H]3C[C@@H]3CO)ncc2c(N)n1` (racemic): affinity was put at a Ki of 1.1 nM. Against the preceding compound, the Ki is about 92-fold lower.

`CCc1cc(OC)ncc1-c1cc2cc(NC(=O)[C@@H]3C[C@@H]3F)ncc2c(N)n1` (racemic) came in with a Ki of 4.88 nM.

Consider `Cc1cc(C(=O)N(C)C)ncc1-c1cc2cc(NC(=O)[C@H]3C[C@@H]3c3cnn(C)c3)ncc2c(N)n1` (racemic), for which the Ki came to 6.14 nM. This Ki and that of the compound before are within 1.5-fold of each other.

With `Cc1ccncc1-c1nc(N)c2cnc(NC(=O)[C@H]3C[C@@H]3C#N)cc2c1F` (racemic), the inhibitory constant (Ki) is 4.4 nM.

Turning to `CCC1CCCN1c1cc2cc(NC(=O)[C@@H]3C[C@@H]3F)ncc2c(N)n1` (mixture of isomers), the Ki was 11.7 nM and 10.3 nM.

In turn, `Nc1nc(-c2cncc3c2OCC(=O)N3)cc2cc(NC(=O)[C@@H]3C[C@@H]3F)ncc12` (racemic) had a Ki of 1.77 nM. This counts as single-digit nanomolar.

In the case of `COCCc1ccncc1-c1cc2cc(NC(=O)[C@H]3C[C@@H]3C#N)ncc2c(N)n1` (racemic), the Ki is 21.2 nM.

Consider `Cc1cnc(CO)cc1-c1cc2cc(NC(=O)[C@@H]3C[C@@H]3F)ncc2c(N)n1` (racemic), for which the affinity, expressed as Ki, was 18.3 nM. The Ki values of the last two compounds are within 1.5-fold of each other.

`Cc1ccncc1-c1cc2cc(NC(=O)[C@H]3C[C@@H]3c3ncccn3)ncc2c(N)n1` (racemic): the Ki was found to be 10 nM.

As for `Cc1ccncc1-c1cc2cc(NC(=O)[C@@H]3C[C@H]3c3cnsc3)ncc2c(N)n1` (racemic), the inhibitory constant (Ki) stood at 0.15 nM.

`Cc1cnc(C#N)cc1-c1cc2cc(NC(=O)[C@@H]3C[C@@H]3F)ncc2c(N)n1` (racemic): the Ki was found to be 22.5 nM.

In turn, `Cc1ccnc(C)c1-c1cc2cc(NC(=O)[C@@H]3C[C@@H]3F)ncc2c(N)n1` (racemic) returned a Ki of 5.03 nM.

`Cc1ccncc1-c1nc(N)c2cnc(NC(=O)[C@@H]3C[C@H]3c3cn[nH]c3)cc2c1Cl` (racemic): the inhibition constant Ki was 0.047 nM. This Ki is about 110-fold lower than that of the compound before.

The compound `Cc1ccncc1-c1cc2cc(NC(=O)C3CC34CC4)ncc2c(N)n1` (racemic) gave a Ki of 1.35 nM.

For the compound `Cc1cc(C(C)(C)O)ncc1-c1cc2cc(NC(=O)[C@@H]3C[C@@H]3F)ncc2c(N)n1` (racemic), the affinity, expressed as Ki, was 41.7 nM.

Take `Cc1ncc(N)c(C)c1-c1cc2cc(NC(=O)[C@@H]3C[C@H]3C)ncc2c(N)n1` (racemic): the inhibitory constant (Ki) came to 3.2 nM.

In the case of `Cc1ccncc1-c1cc2cc(NC(=O)[C@@H]3C[C@@H]3F)ncc2c(N)n1` (racemic), the affinity corresponds to a Ki of 0.38 nM. This Ki is about 8.4-fold lower than that of the compound before.

Regarding `Cc1ccnc(-c2ccccc2)c1-c1cc2cc(NC(=O)[C@H]3C[C@@H]3CC#N)ncc2c(N)n1` (racemic), the Ki came out at 0.051 nM.

Turning to `Cc1ccncc1-c1cc2cc(NC(=O)[C@@H]3C[C@H]3C(F)(F)F)ncc2c(N)n1` (racemic), the Ki was 1.4 nM.

Compound `N#C[C@@H]1C[C@H]1C(=O)Nc1cc2cc(-c3cnccc3C(F)(F)F)nc(N)c2cn1` (racemic) came in with a Ki of 6.49 nM.

Turning to `C[C@@H]1C[C@H]1C(=O)Nc1cc2cc(-c3cnn(C)c3)nc(N)c2cn1` (racemic), the Ki is 1.85 nM. Compared with the last compound, the Ki is about 3.5-fold lower.

The compound `Cn1cc([C@H]2C[C@@H]2C(=O)Nc2cc3cc(-c4cnc(N)c(C(F)(F)F)c4)nc(N)c3cn2)cn1` (racemic) returned a Ki of 11.8 nM.

For `Cc1nn(C)c(C)c1-c1cc2cc(NC(=O)[C@H]3C[C@@H]3C(F)(F)F)ncc2c(N)n1` (racemic), the inhibition constant Ki is 12 nM.

The compound `Cc1ccncc1-c1cc2cc(NC(=O)[C@@H]3C[C@]34CCNC4)ncc2c(N)n1` (racemic) returned a Ki of 6.8 nM.

In the case of `CCC1CCCN1c1cc2cc(NC(=O)[C@H]3C[C@H]3F)ncc2c(N)n1` (mixture of isomers), the Ki worked out at 172 nM.

For the compound `Cc1ccc(F)cc1-c1cc2cc(NC(=O)[C@H]3C[C@@H]3c3cnn(C)c3)ncc2c(N)n1` (racemic), affinity was put at a Ki of 0.113 nM.

Compound `Cc1cc(C(=O)OCc2ccccc2)ncc1-c1cc2cc(NC(=O)[C@H]3C[C@@H]3c3cnn(C)c3)ncc2c(N)n1` (racemic) returned a Ki of 1.17 nM.

Compound `Cc1ccncc1-c1cc2cc(NC(=O)[C@@H]3C[C@H]3c3cc[nH]n3)ncc2c(N)n1` (racemic) had a Ki of 0.58 nM. Compared with the last compound, the Ki is about 2-fold lower.

Regarding `CC(O)Cc1ccncc1-c1cc2cc(NC(=O)[C@H]3C[C@@H]3C#N)ncc2c(N)n1` (mixture of isomers), the Ki came to 7.28 nM.

`Cc1ncc(-c2cc3cc(NC(=O)[C@@H]4C[C@H]4C#N)ncc3c(N)n2)n1C` (relative stereo): the Ki was 18.9 nM.

In turn, `Cc1cc(C(=O)NCC(F)(F)F)ccc1-c1cc2cc(NC(=O)[C@@H]3C[C@H]3C#N)ncc2c(N)n1` (relative stereo) returned a Ki of 8.1 nM.

(Values after ChEMBL document CHEMBL5728527, “Naphthyridines as inhibitors of HPK1” (2021).)
